The subject of one data set is Aβ38. The data set can be described thus: In vivo efficacy B-2b: brain soluble Aβ38, MSD electrochemiluminescence multiplex. To be noted: mouse brain soluble fraction, dose 30 mg/kg oral dosing, 4 h after dose; untreated control set at 100; read-out: Aβ38 (% vs Ctrl)_Mean. The text has this:
To determine whether acute administration of an Aβ38 increasing agents would increase Aβ38 levels in vivo, non-transgenic rodents, e.g. mice or rats were used. Animals treated with the Aβ38 increasing agents were examined and compared to those untreated or treated with vehicle and brain levels of soluble Aβ42, Aβ40, Aβ38, and Aβ37 were quantitated by MSD electrochemiluminescence detection technology. Treatment periods varied from hours (h) to days and were adjusted based on the results of the Aβ38 increase once a time course of onset of effect could be established.
A typical protocol for measuring Aβ38 increase in vivo is shown but it is only one of many variations that could be used to optimize the levels of detectable Aβ. For example, Aβ38 increasing agents were formulated in 20% of Captisol® (a sulfobutyl ether of β-cyclodextrin) in water or 20% hydroxypropyl β cyclodextrin. The Aβ38 increasing agents were administered as a single oral dose or by any acceptable route of administration to overnight fasted animals. After 4 h, the animals were sacrificed and Aβ38 levels were analysed.
(§1) Blood was collected by decapitation and exsanguinations in EDTA-treated collection tubes. Blood was centrifuged at 1900 g for 10 minutes (min) at 4° C. and the plasma recovered and flash frozen for later analysis. The brain was removed from the cranium and hindbrain. The cerebellum was removed and the left and right hemisphere were separated. The left hemisphere was stored at −18° C. for quantitative analysis of test compound levels. The right hemisphere was rinsed with phosphate-buffered saline (PBS) buffer and immediately frozen on dry ice and stored at −80° C. until homogenization for biochemical assays.
(§2) Mouse brains from non-transgenic animals were resuspended in 8 volumes of 0.4% DEA (diethylamine)/50 mM NaCl containing protease inhibitors (Roche-11873580001 or 04693159001) per gram of tissue, e.g. for 0.158 g brain, add 1.264 ml of 0.4% DEA. All samples were homogenized in the FastPrep-24 system (MP Biomedicals) using lysing matrix D (MPBio #6913-100) at 6 m/s for 20 seconds. Homogenates were centrifuged at 20800×g for 5 min and supernatants collected. Supernatants were centrifuged at 221.300×g for 50 min. The resulting high speed supernatants were then transferred to fresh eppendorf tubes. Nine parts of supernatant were neutralized with 1 part 0.5 M Tris-HCl pH 6.8 and used to quantify Aβ.
(§3) To quantify the amount of Aβ42, Aβ40, Aβ38, and Aβ37 in the soluble fraction of the brain homogenates, simultaneous specific detection of Aβ42, Aβ40, Aβ38, and Aβ37 was performed using MSD's electro-chemiluminescence multiplex detection technology. In this assay purified monoclonal antibodies specific for Abeta37 (JRD/Aβ37/3), Abeta38 (J&JPRD/Aβ38/5), Abeta40 (JRF/cAβ40/28), and Abeta42 (JRF/cAβ42/26) were coated on MSD 4-plex plates. Briefly, the standards (a dilution of synthetic Aβ42, Aβ40, Aβ38, and Aβ37) were prepared in 1.5 ml Eppendorf tube in Ultraculture, with final concentrations ranging from 10000 to 0.3 pg/m. The samples and standards were co-incubated with Sulfo-tag labelled JRF/rAβ/2 antibody to the N-terminus of Aβ as detector antibody. 50 μl of conjugate/sample or conjugate/standards mixtures were then added to the antibody-coated plate. The plate was allowed to incubate overnight at 4° C. in order to allow formation of the antibody-amyloid complex. Following this incubation and subsequent wash steps the assay was finished by adding read buffer according to the manufacturer's instructions (Meso Scale Discovery, Gaitherburg, Md.).
(§4) The SULFO-TAG emits light upon electrochemical stimulation initiated at the electrode. MSD Sector instrument SI6000 was used for signal read-out.
In this model a Aβ38 increase compared to untreated animals would be advantageous, in particular a Aβ38 increase with at least 10%, more in particular a Aβ38 increase with at least 20%. […]

A further data set concerns Aβtotal. The data set can be described thus: Screening for γ-secretase-modulating activity: Aβtotal in supernatant of SKNBE2 cells carrying hAPP 695 wild type (Alphalisa). Format: cell-based, human. To be noted: overnight incubation, Alphalisa on supernatant. In outline: (§5)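 SKNBE2 human neuroblastoma cells expressing wild-type hAPP 695 (10^4/well) were incubated overnight at 37 °C, 5% CO2 with compound at several concentrations. Supernatant Aβ42 and Aβtotal measured by AlphaLISA sandwich immunoassays; IC50 from 4-parameter fit of percent of untreated control versus log concentration.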
Background: In Alpha technology, singlet oxygen from a donor bead excites a nearby acceptor bead.

For data set [1], the system named is Aβ42. In words: Screening for γ-secretase-modulating activity: Aβ42 in supernatant of SKNBE2 cells carrying hAPP 695 wild type (Alphalisa). To be noted: overnight incubation, Alphalisa on supernatant. It is filed as cell-based, human. In outline:
as §5

The test system of another data set is Aβ40. The data set can be described thus: In vivo efficacy B-1b/B-2b: brain soluble Aβ40, MSD electrochemiluminescence multiplex. Particulars: mouse brain soluble fraction, dose 30 mg/kg oral dosing, 4 h after dose; untreated control set at 100; read-out: Aβ40 (% vs Ctrl)_Mean.
Text: (§6) To determine whether acute administration of an Aβ42 lowering agent would reduce Aβ42 levels in vivo, non-transgenic rodents, e.g. mice or rats were used. Animals treated with the Aβ42 lowering agent were examined and compared to those untreated or treated with vehicle and brain levels of soluble Aβ42, Aβ40, Aβ38, and Aβ37 were quantitated by Meso Scale Discovery's (MSD) electrochemiluminescence detection technology. Treatment periods varied from hours (h) to days and were adjusted based on the results of the Aβ42 lowering once a time course of onset of effect could be established.
(§7) A typical protocol for measuring Aβ42 lowering in vivo is shown but it is only one of many variations that could be used to optimize the levels of detectable Aβ. For example, Aβ42 lowering compounds were formulated in 20% of Captisol® (a sulfobutyl ether of β-cyclodextrin) in water or 20% hydroxypropyl β cyclodextrin. The Aβ42 lowering agents were administered as a single oral dose or by any acceptable route of administration to overnight fasted animals. After 4 h, the animals were sacrificed and Aβ42 levels were analysed.
as §1, §2, §3, §4
The results are shown in Table 5 (dose 30 mg/kg oral dosing) (value for untreated animals as control (Ctrl) was set at 100): […]

In data set [2] the test system is Aβ42. The data set can be described thus: In vivo efficacy B-1b: brain soluble Aβ42, MSD electrochemiluminescence multiplex. To be noted: mouse brain soluble fraction, dose 30 mg/kg oral dosing, 4 h after dose; untreated control set at 100; read-out: Aβ42 (% vs Ctrl)_Mean.
Text: as §6, §7, §1, §2, §3, §4
In this model a Aβ42 lowering compared to untreated animals would be advantageous, in particular a Aβ42 lowering with at least 10%, more in particular a Aβ42 lowering with at least 20%. […]

Where [3] appears, read: SKNBE2 human neuroblastoma cells carrying hAPP 695 wild type.
[4] abbreviates: Homo sapiens, SKNBE2, SKNBE2 human neuroblastoma cells carrying hAPP 695 wild type.

Turning to `COc1c(C#N)ccc2[nH]c(-c3cn4c(n3)C(c3ccc(F)c(Cl)c3)OCC4)cc12` (centres unmarked) [Compound 154, 2-[8-(3-chloro-4-fluorophenyl)-5,6-dihydro-8H-imidazo[2,1-c][1,4]oxazin-2-yl]-4-methoxy-1H-indole-5-carbonitrile], the response vs control in vivo at 30 mg/kg is 170% in the data set on Aβ38, 101% in the data set with Aβ40 and 90% with Aβ42 [2]. Moreover, the 50% inhibitory concentration (IC50) in the data set on Aβtotal (setting [3]) was greater than 10 µM; in the data set with Aβ42 [1] (setting [3]), 65 nM.
Molecule `N#Cc1ccc2[nH]c(-c3nc4n(n3)CCCC4c3ccc(F)cc3C(F)(F)F)cc2c1` (centres unmarked) [Compound 22, 2-[8-[4-fluoro-2-(trifluoromethyl)phenyl]-5,6,7,8-tetrahydro[1,2,4]triazolo[1,5-a]pyridin-2-yl]-1H-indole-5-carbonitrile] registered a melting point of 265 °C. For the same molecule, in the data set on Aβtotal (setting [4]), the IC50 was greater than 10 µM. It took 138 nM to reach half-maximal inhibition in the data set with Aβ42 [1] (setting [4]) (IC50).
Molecule `COc1c(C#N)ccc2[nH]c(-c3cn4c(n3)C(c3ccccc3C3CC3)OCC4)cc12` (centres unmarked) [Compound 169, 2-[8-(2-cyclopropylphenyl)-5,6-dihydro-8H-imidazo[2,1-c][1,4]oxazin-2-yl]-4-methoxy-1H-indole-5-carbonitrile] yielded a melting point of 270.8 °C. In addition, the IC50 with Aβtotal (setting [3]) is greater than 10 µM. The half-inhibitory concentration (IC50) in the data set with Aβ42 [1] (setting [3]) is 759 nM.
With `Cc1cc(F)ccc1C1CCCn2cc(-c3cc4cc(C#N)ncc4[nH]3)nc21` (centres unmarked) [Compound 72, 2-[8-(4-fluoro-2-methylphenyl)-5,6,7,8-tetrahydroimidazo[1,2-a]pyridin-2-yl]-1H-pyrrolo[2,3-c]pyridine-5-carbonitrile], the melting point is 255.5 °C. In the data set on Aβtotal (setting [4]), this molecule had a 50% inhibitory concentration (IC50) greater than 10 µM. In the data set with Aβ42 [1] (setting [4]), this molecule yielded an IC50 of 126 nM.
In turn, `Cc1cn(-c2ccc3[nH]c(-c4nc5n(n4)CCOC5c4ccc(F)cc4C)cc3c2)cn1` (single isomer, unassigned) [Compound 109, 8-(4-fluoro-2-methylphenyl)-5,6-dihydro-2-[5-(4-methyl-1H-imidazol-1-yl)-1H-indol-2-yl]-8H-[1,2,4]triazolo[5,1-c][1,4]oxazine] registered a melting point of 278.9 °C. For the same molecule, the IC50 with Aβtotal (setting [4]) is greater than 10 µM. Moreover, inhibition with Aβ42 [1] (setting [3]) was half-maximal at 537 nM (IC50).
On to `COc1c(C#N)ccc2[nH]c(-c3cn4c(n3)C(c3cc(F)ccc3C)OCC4)cc12` (centres unmarked) [Compound 159, 2-[8-(5-fluoro-2-methylphenyl)-5,6-dihydro-8H-imidazo[2,1-c][1,4]oxazin-2-yl]-4-methoxy-1H-indole-5-carbonitrile], for which the melting point is 277.1 °C. This molecule also yielded a concentration for half-maximal inhibition (IC50) with Aβtotal (setting [3]) greater than 10 µM. Further, the concentration for half-maximal inhibition (IC50) in the data set on Aβ42 [1] (setting [3]) amounted to 676 nM.
The corresponding values for `COc1c(C#N)ccc2[nH]c(-c3nc4n(n3)CCOC4c3ccccc3Cl)cc12` (centres unmarked) [Compound 137, 2-[8-(2-chlorophenyl)-5,6-dihydro-8H-[1,2,4]triazolo[5,1-c][1,4]oxazin-2-yl]-4-methoxy-1H-indole-5-carbonitrile] are 197.5 °C, greater than 10 µM and 49 nM.
Regarding `Cc1cn(-c2ccc3[nH]c(-c4nc5n(n4)CCOC5c4ccc(F)cc4C(C)C)cc3c2)cn1` (centres unmarked) [Compound 100, 8-[4-fluoro-2-(1-methylethyl)phenyl]-5,6-dihydro-2-[5-(4-methyl-1H-imidazol-1-yl)-1H-indol-2-yl]-8H-[1,2,4]triazolo[5,1-c][1,4]oxazine], the melting point is 297.5 °C. This molecule returned an IC50 in the data set with Aβtotal (setting [4]) greater than 10 µM. In the data set with Aβ42 [1] (setting [4]), this molecule displayed an IC50 of 48 nM.
The corresponding values for `N#Cc1ccc2[nH]c(-c3nc4n(n3)CCCC4c3ccccc3C(F)(F)F)nc2c1` (centres unmarked) [Compound 38, 2-[5,6,7,8-tetrahydro-8-[2-(trifluoromethyl)phenyl][1,2,4]triazolo[1,5-a]pyridin-2-yl]-1H-benzimidazole-5-carbonitrile] are 252.2 °C, greater than 10 µM and 871 nM.
For `COc1ccc2[nH]c(-c3nc4n(n3)CCCC4c3ccccc3C(F)(F)F)cc2c1` (centres unmarked) [Compound 29, 5,6,7,8-tetrahydro-2-(5-methoxy-1H-indol-2-yl)-8-[2-(trifluoromethyl)phenyl]-[1,2,4]triazolo[1,5-a]pyridine], in that order: 183 °C, greater than 15.1 µM and 4790 nM.
For `COc1c(C#N)ccc2[nH]c(-c3cn4c(n3)C(c3ccccc3C3CC3)OCC4)cc12` (centres unmarked) [Compound 170, 2-[8-(2-cyclopropylphenyl)-5,6-dihydro-8H-imidazo[2,1-c][1,4]oxazin-2-yl]-4-methoxy-1H-indole-5-carbonitrile], the melting point was 269.8 °C. This molecule gave a half-maximal inhibitory concentration (IC50) with Aβtotal (setting [4]) greater than 10 µM. Also, in the data set with Aβ42 [1] (setting [3]), it took 11 nM to reach half-maximal inhibition (IC50).
In the case of `Cc1cc(-c2ccc3[nH]c(-c4cn5c(n4)C(c4ccc(F)cc4C)OCC5)cc3c2)ccn1` (centres unmarked) [Compound 103, 8-(4-fluoro-2-methylphenyl)-5,6-dihydro-2-[5-(2-methyl-4-pyridinyl)-1H-indol-2-yl]-8H-imidazo[2,1-c][1,4]oxazine], the melting point is 191.8 °C. Moreover, the half-inhibitory concentration (IC50) in the data set on Aβtotal (setting [4]) is greater than 10 µM. Besides, it took 26 nM to reach half-maximal inhibition in the data set on Aβ42 [1] (setting [4]) (IC50).
The corresponding values for `COc1c(C#N)ccc2[nH]c(-c3nc4n(n3)CCCC4(O)c3ccc(F)cc3C)cc12` (centres unmarked) [Compound 60, 2-[8-(4-fluoro-2-methylphenyl)-5,6,7,8-tetrahydro-8-hydroxy[1,2,4]triazolo[1,5-a]pyridin-2-yl]-4-methoxy-1H-indole-5-carbonitrile] are 287.1 °C, greater than 10 µM and 138 nM.
As for `Cc1cc(F)ccc1C1OCCn2nc(-c3cc4cc(C#N)ccc4[nH]3)nc21` (single isomer, unassigned) [Compound 98, 2-[8-(4-fluoro-2-methylphenyl)-5,6-dihydro-8H-[1,2,4]triazolo[5,1-c][1,4]oxazin-2-yl]-1H-indole-5-carbonitrile], the melting point was found to be 253.5 °C. In the data set with Aβtotal (setting [3]), this molecule came in with an IC50 greater than 10 µM. The molecule also came in with an IC50 in the data set on Aβ42 [1] (setting [3]) of 5500 nM.

By IC50 is commonly meant the concentration that gives 50% inhibition. Low readings indicate inhibition by little substance, high ones a need for much substance. The term melting point denotes the temperature of the solid-liquid transition.

For the origin of these results see patent US9115143B2, “Substituted indole derivatives as gamma secretase modulators” (Janssen Pharmaceuticals, Inc., priority 2011, dated 2015).
